According to US7267990B2, “Chelation of charged and uncharged molecules with porphyrin-based compounds” (priority 2002, dated 2007):

Columns and labels:
[1] = test system: healthy female Balb/c mice; details: mouse, in vivo
Description: So far we have determined maximum tolerated doses for compounds 4, 6, 16, 31, and 33 using healthy female Balb/c mice.

[2] = test system: human U-373MG glioblastoma cells; assay: Dark cytotoxicity assay, U-373 MG cells; format: cell-based; details: 24 hour exposure, concentrations up to 250 μM, read-out: IC50 (dark toxicity, inhibition of proliferation)
Description: (§1) Human glioblastoma U373 MG, hamster V79 fibroblast, and mouse melanoma B16 cells were obtained from the American Type Culture Collection. Rat gliosarcoma cells were kindly provided by the University of California at San Francisco Brain Tumor Research Group. All cells were maintained in log phase monolayer cultures with RPMI 1640 supplemented with 10% fetal bovine serum and 2 mM glutamine.
(§2) Cells were seeded in 96-well culture plates, and were allowed to settle and attach for 24-48 hours. Triplicate wells were then exposed to twofold serial dilutions of test compounds at concentrations up to 250 μM. Compounds 4, 6, 10, and 12 in crystalline form were carefully weighed and dissolved in 100% DMSO to prepare stock solutions. Subsequent dilutions were performed directly in the culture medium just before the medium was administered to cells. After short-term (2 hour) or long-term (24 hour) exposure, cells were washed, and the wells were refilled with fresh culture medium. For dark toxicity trials, cells were allowed to proliferate for an additional 48-72 hours. For phototoxicity trials, washed cells were irradiated for 10 minutes with broad spectrum (600-700 nm) red light, and were then returned to an incubator for 48-72 hours.

[3] = test system: rat 9 L gliosarcoma cells; assay: Dark cytotoxicity assay, 9L cells; format: cell-based; details: 24 hour exposure, concentrations up to 250 μM, read-out: IC50 (dark toxicity, inhibition of proliferation)
Description: as §1, §2

[4] = test system: V79 hamster fibroblast cells; assay: Clonogenic cytotoxicity assay in V79 cells; format: cell-based; details: concentrations up to 200 μM
Description: Human glioblastoma U373 MG, hamster V79 fibroblast, and mouse melanoma B16 cells were obtained from the American Type Culture Collection. Rat gliosarcoma cells were kindly provided by the University of California at San Francisco Brain Tumor Research Group. All cells were maintained in log phase monolayer cultures with RPMI 1640 supplemented with 10% fetal bovine serum and 2 mM glutamine. We have also determined the cytotoxicity of porphyrins 4, 16, 18, and 31 in V79 hamster fibroblast cells using a clonogenic assay. For each of these porphyrins, we found CS50>300 μM, and we observed no toxicity (i.e., no effect on colony survival) at concentrations up to 200 μM.

Substance: Zn(II)-meso-tetra[4-(1-methyl-nido-carboranyl)methylphenyl]porphyrin tetrapotassium salt [Compound 6]
- maximum tolerated dose [1]: exceeded 300 mg per kg of body weight

Substance: meso-tetra[3-(1-methyl-nido-carboranyl)methylphenyl]porphyrin tetrapotassium salt [Compound 10]
- IC50 [2]: ~150 µM
- IC50 [3]: ~150 µM

Substance: meso-tetra[4-(1-methyl-nido-carboranyl)methylphenyl]porphyrin tetrapotassium salt [Compound 4]
- IC50 [2]: ~150 µM
- maximum tolerated dose [1]: exceeded 300 mg per kg of body weight
- IC50 [3]: ~150 µM
- toxicity (effect on colony survival) [4]: no toxicity

Substance: meso-tetra[4-(nido-carboranyl)phenyl]porphyrin tetrapotassium salt [Compound 16]
- maximum tolerated dose [1]: exceeded 300 mg per kg of body weight
- toxicity (effect on colony survival) [4]: no toxicity

Substance: 5,15-bis[bis-3,5-(1-methyl-o-carboranyl)methylphenyl]porphyrin [Compound 33]
- maximum tolerated dose [1]: exceeded 300 mg per kg of body weight

Substance: Zn(II)-meso-tetra[4-(nido-carboranyl)phenyl]porphyrin tetrapotassium salt [Compound 18]
- toxicity (effect on colony survival) [4]: no toxicity
